Laboratory results from US10124065B2, “Lipids and lipid compositions for the delivery of active agents” (Novartis AG, priority 2013, dated 2018).
Read-outs that look alike come from different tables or passages of the source. Each block holds one compound with its values, some of them ahead of it.

Legend:
[1] = pKa measurement of cationic lipid (TNS fluorescence); format: physicochemical; settings: pKa of the cationic lipid of formula (I), Table 4
Method: Unless indicated otherwise, all pKa's referred to herein were measured at standard temperature and pressure. Also, unless otherwise indicated, all references to pKa are references to pKa measured using the following technique. 2 mM solution of lipid in ethanol was prepared by weighing the lipid and then dissolving it in ethanol. 0.3 mM solution of fluorescent probe TNS in ethanol:methanol 9:1 was prepared by first making 3 mM solution of TNS in methanol and then diluting to 0.3 mM with ethanol. An aqueous buffer containing 200 mM sodium phosphate dibasic and 100 mM citric acid was prepared. […] Using the Hamilton Microlab Star high throughput liquid handler and Hamilton run control software Software, 7.5 uL of probe/lipid mix were added to 242.5 uL of buffer in a 1 mL 96 well plate (model NUNC 260252, […] Nunc International). This was done with all twelve buffers. After mixing in 1 mL 96 well plate, 100 uL of each probe/lipid/buffer mixture was transferred to a 250 uL black with clear bottom 96 well plate (model COSTAR 3904, Corning). The fluorescence measurements are carried out on the SpectraMax M5 spectrophotometer using software SoftMax pro 5.2 and following parameters: After the measurement, the background fluorescence value of an empty well on the 96 well plate was subtracted from each probe/lipid/buffer mixture. The fluorescence intensity values were then normalized to the value at lowest pH. The normalized fluorescence intensity vs. pH chart was then plotted in the Microsoft Excel software. The twelve points were connected with a smooth line. The point on the line at which the normalized fluorescence intensity was equal to 0.5 was found. […] The pKa determined using this method is precise to about 0.1 pKa units.

[2] = Particle size of lipid nanoparticle (dynamic light scattering, Malvern Zetasizer); format: physicochemical
Excerpt: The lipid nanoparticles have a size of about 1 to about 2,500 nm, about 1 to about 1,500 nm, about 1 to about 1,000 nm, in a sub-embodiment about 50 to about 600 nm, in a sub-embodiment about 50 to about 400 nm, in a sub-embodiment about 50 to about 250 nm, and in a sub-embodiment about 50 to about 150 nm. Unless indicated otherwise, all sizes referred to herein are the average sizes (diameters) of the fully formed nanoparticle, as measured by dynamic light scattering on a Malvern Zetasizer. The nanoparticle sample is diluted in phosphate buffered saline (PBS) so that the count rate is approximately 200-400 kcts. The data is presented as a weighted average of the intensity measure. Unless indicated otherwise, all particle size measurements referred to in Tables 4 and 5 are the Z-average particle size of the fully formed nanoparticle, as measured by dynamic light scattering on a Malvern Zetasizer. The nanoparticle sample was diluted in phosphate buffered saline (PBS) so that the count rate is approximately 200-400 kcts.

[3] = Polydispersity index (PDI) of lipid nanoparticle (dynamic light scattering); format: physicochemical
Method: Unless indicated otherwise, all PDIs referred to herein are the PDI of the fully formed nanoparticle, as measured by dynamic light scattering on a Malvern Zetasizer. The nanoparticle sample was diluted in phosphate buffered saline (PBS) so that the count rate was approximately 200-400 kcts. The data is presented in Tables 4 and 5 as a weighted average of the intensity measure.

[4] = tested on: plasma Factor VII enzyme activity; assay: Mouse Factor VII dosing / Factor VII Activity Assay; format: in vivo; settings: percent knock down of plasma Factor VII activity, CD-1 mice, 48 h; for KD FVII 0.03 mg/kg: single IV dose 0.03 mg/kg; for KD FVII 0.3 mg/kg: single IV dose 0.3 mg/kg
Method: Female CD-1 mice were received from Harlan Labs and maintained on standard lab chow and water ad libitum. The animals weighed approximately 25 grams at time of dosing. Formulated Factor VII siRNA was administered as a single dose intravenously via the lateral tail vein. Approximately 48 hours after injection, the mice were euthanized by CO2 inhalation followed by exsanguination through the vena cava. […] Plasma collected from injected mice was assayed for Factor VII enzyme activity using the Biophen FVII kit from Hyphen Biomedical (catalog number 221304). An assay standard curve was prepared using pooled plasma aliquots from the vehicle control animals. All samples were diluted to fall within the linear range of the standard curve and Factor VII activity relative to control plasma was reported. Lipid nanoparticles comprising lipid compounds of formula (I) and the FVII siRNA duplex sequence listed above were tested in the Factor VII Activity Assay. The results of this assay are given in Table 4 below as a percent knock down of plasma Factor VII enzyme activity at a dose of 0.3 mg/kg and 0.03 mg/kg.

[5] = tested on: respiratory syncytial virus F protein; assay: Immunization studies, anti-RSV-F titers; format: in vivo; settings: anti-RSV-F titer, BALB/c, course A = days 0 & 21, liposomes with 0.1 μg vA317 replicon (naked: 1 μg); for 2wp1 pool 1 / 2wp1 pool 2: 2 weeks after first dose; for 2wp2 pool 1 / 2wp2 pool 2: 2 weeks after second dose
[6] = tested on: human leptin; assay: Mouse intravenous tail vein injection of modified synthetic leptin mRNA, human leptin ELISA; format: in vivo, C57BL/6 mouse; settings: human leptin in mouse plasma, 10 μg leptin mRNA, 24 h
Method: Before the tail vein injection, mouse body weights were recorded and diet weighted, with mice grouped according to their body weights. Mice were prepared by warming them under a heating lamp for ˜2 minutes, with the mice about 12 inches from heat lamp.
For the tail vein injection procedure, the mice were placed in a restrainer and their tails cleaned with 70% alcohol. A 27 gauge needle (Becton Dickinson, Catalogue #305109) connected with a 1 ml syringe (Becton Dickinson, Catalogue #309659) was inserted into the tail vein, with bevel facing up, and the syringe plunger was pulled backwards to ensure blood is drawn into the syringe. The desired volume of modified synthetic leptin mRNA was injected by hand with moderate pressure and speed. The needle was then withdrawn and bleeding stopped by adding pressure to injection site with gauze.
Single housed, 8-9 week old, male C57BL/6 mice were used for the in vivo study. FPLC purified modified synthetic leptin mRNA (SEQ ID NO: 5) in which the uridines were substituted with pseudouridine was packaged in a cationic lipid (N:P molar ratio=8:1) and then were diluted in injectable saline at a dose of 10 μg per average group body weight.
On day 0, animals were weighed and sorted according to average body weight. Mice were dosed, and food intake (FI) was recorded, on each of days 1-7 and days 9, 11, and 16.
Human leptin in mouse plasma was measured by ELISA. Antibodies purchased from the R&D Systems duoset (Cat# DY398E, part#840279 for capture antibody and part#840280 for detection antibody) were reconstituted using PBS and titered, again using PBS. The capture antibody was coated at 4 ug/ml in 30 ul/well on a white Nunc® Maxisorp 384 well plate (Cat#460372). After an overnight incubation at room temperature the capture antibody was aspirated and the plate blocked for 2 hours at room temperature with 90 ul/well of KPL milk blocker (Cat#50-82-00). Once the incubation was completed the plate was aspirated and recombinant standards and samples were added to the plate at 30 ul/well for 2 hours at 37° C. while shaking at 600 rpm. Sample/standard dilutions were made using casein sample diluent. Washing/aspiration 3 times with 100 ul/well followed, using Teknova plate wash solution (Cat# P1192). Next, detection antibody was diluted using casein detection antibody diluent to 12.5 ng/ml and added at 30 ul/well for 2 hours room temperature. After this incubation, the plate was washed again and a solution of poly-streptavidin-HRP (Cat#21140) at a 1:1250 dilution in HRP dilution buffer was added to each well (30 ul/well) and incubated for 30 minutes room temperature. A final wash/aspiration removed the HRP solution and a chemiluminescent substrate was added at 30 ul/well (Cat#1859678 & 1859679). The plate was quickly read using a SpectramaxM5 plate reader with a 50 ms integration time. The dynamic range of the ELISA is from 100-2,000 pg/ml (6.25-125 pM) of human leptin.

[7] = FVII siRNA LNP, Chol/DSPC/PEG-DMG, molar ratio 45/44/9/2, Z-average
[8] = FVII siRNA LNP, Chol/DSPC/PEG-DMG, molar ratio 45/44/9/2
[9] = LNP Chol/DSPC/PEG-DMG 45/44/9/2
[10] = FVII siRNA LNP, Chol/DSPC/S010, molar ratio 45/44/9/2, Z-average
[11] = PLK1-424 siRNA LNP, Chol/DSPC/S011 45/44/9/2
[12] = FVII siRNA LNP, Chol/DSPC/S010, molar ratio 45/44/9/2

SMILES: CCCCCCCCOC(CCCOc1cc(CN(C)C)cc(OCCCC(OCCCCCCCC)OCCCCCCCC)c1)OCCCCCCCC [Ex. 126, 1-(3,5-bis(4,4-bis(octyloxy)butoxy)phenyl)-N,N-dimethylmethanamine]
- pKa ([1]; probe TNS, read-out: pKa): 5.54
- Size (nm) [2, 7]: 95.2 nm
- PDI [3, 8]: 0.075
- KD FVII 0.03 mg/kg [4, 9]: 31.7%

SMILES: CCCCC/C=C\C/C=C\CCCCCCCCOc1cc(CN(C)C)cc(OCCCCCCCC/C=C\C/C=C\CCCCC)c1 [Example 2, 1-(3,5-bis((9Z,12Z)-octadeca-9,12-dien-1-yloxy)phenyl)-N,N-dimethylmethanamine]
- pKa ([1]; listed as Ex. 2): 5.46
- Size (nm) [2, 7]: 97.4 nm
- Size (nm) [2, 10]: 92.85 nm
- Size (nm) [2, 11]: 88.19 nm
- PDI [3, 8]: 0.04
- PDI [3, 12]: 0.067
- PDI [3, 11]: 0.1
- KD FVII 0.03 mg/kg ([4]; LNP Chol/DSPC/S010 45/44/9/2): 55%
- KD FVII 0.3 mg/kg [4, 9]: 95.5%
- 2wp1 pool 1 [5]: 217
- 2wp1 pool 2 [5]: 259
- 2wp2 pool 1 [5]: 12785
- 2wp2 pool 2 [5]: 8232

SMILES: CCCCC/C=C\C/C=C\CCCCCCCC(=O)Oc1cc(COC(=O)CCN(C)C)cc(OC(=O)CCCCCCC/C=C\C/C=C\CCCCC)c1 [Example 26, (9Z,9′Z,12Z,12′Z)-5-(((3-(dimethylamino)propanoyl)oxy)methyl)-1,3-phenylene bis(octadeca-9,12-dienoate)]
- pKa ([1]; probe TNS, read-out: pKa): 6.45
- Size (nm) [2, 7]: 104.3 nm
- Size (nm) [2, 10]: 121.6 nm
- PDI [3, 8]: 0.04
- PDI [3, 12]: 0.046
- KD FVII 0.3 mg/kg [4, 9]: 58.1%
- 2wp1 pool 1 [5]: 4
- 2wp1 pool 2 [5]: 4
- 2wp2 pool 1 [5]: 10
- 2wp2 pool 2 [5]: 10
- 4wp2 pool 1 ([5]; 4 weeks after second dose): 10
- 4wp2 pool 2 ([5]; 4 weeks after second dose): 10

- pKa ([1]; listed as Ex. 53): 5.84
SMILES: CCCCCCCCCCCC(=O)OCCCCCCCCOc1cc(CN(C)C)cc(OCCCCCCCCOC(=O)CCCCCCCCCCC)c1 [Example 53, ((5-((dimethylamino)methyl)-1,3-phenylene)bis(oxy))bis(octane-8,1-diyl)didodecanoate]
- KD FVII 0.3 mg/kg [4, 9]: 96.6%

- pKa ([1]; listed as Ex. 56): 5.71
SMILES: CCCCCCCCC(CCCCCCCC)CC(=O)OCCCOc1cc(CN(C)C)cc(OCCCOC(=O)CC(CCCCCCCC)CCCCCCCC)c1 [Example 56, ((5-((dimethylamino)methyl)-1,3-phenylene)bis(oxy))bis(propane-3,1-diyl)bis(3-octylundecanoate)]
- KD FVII 0.3 mg/kg [4, 9]: 71.0%

- pKa ([1]; listed as Ex. 58): 6.02
SMILES: CCCCC/C=C\C/C=C\CCCCCCCC(=O)OCCOCCOc1cc(CN(CC)CC)cc(OCCOCCOC(=O)CCCCCCC/C=C\C/C=C\CCCCC)c1 [Example 58, (9Z,9′Z,12Z,12′Z)-((((5-((diethylamino)methyl)-1,3-phenylene)bis(oxy))bis(ethane-2,1-diyl))bis(oxy))bis(ethane-2,1-diyl)bis(octadeca-9,12-dienoate)]
- KD FVII 0.03 mg/kg ([4]; LNP Chol/DSPC/S010 45/44/9/2): 15.25%
- KD FVII 0.3 mg/kg [4, 9]: 78.1%

SMILES: CCCCCCCC(=O)OCCCCCC(=O)OCc1cc(COC(=O)CCCCCOC(=O)CCCCCCC)cc(CN(C)C)c1 [Example 85, (((5-((dimethylamino)methyl)-1,3-phenylene)bis(methylene))bis(oxy))bis(6-oxohexane-6,1-diyl)dioctanoate]
- Leptin expression IV-C57BI/6, 24 h [6]: 1.78 ng/mL

- pKa ([1]; listed as Ex. 86): 5.81
SMILES: CCCCCCCC(=O)OCCCCCCCCCC(=O)OCc1cc(COC(=O)CCCCCCCCCOC(=O)CCCCCCC)cc(CN(C)C)c1 [Example 86, (5-((dimethylamino)methyl)-1,3-phenylene)bis(methylene)bis(10-(octanoyloxy)decanoate)]
- KD FVII 0.03 mg/kg ([4]; LNP Chol/DSPC/S010 45/44/9/2): 0%
- KD FVII 0.3 mg/kg [4, 9]: 55.3%

SMILES: CCCCCCCC(=O)OC[C@@H](CCOc1cc(CN(C)C)cc(OCC[C@@H](COC(=O)CCCCCCC)OC(=O)CCCCCCC)c1)OC(=O)CCCCCCC [Example 92, (R)-4-(3-((S)-3,4-bis(octanoyloxy)butoxy)-5-((dimethylamino)methyl)phenoxy)butane-1,2-diyldioctanoate]
- KD FVII 0.03 mg/kg ([4]; LNP Chol/DSPC/S010 45/44/9/2): 89.4%
- Leptin expression IV-C57BI/6, 24 h [6]: 1.34 ng/mL
